Test results taken from paper PMC7261199 (Chemistry (Weinheim an der Bergstrasse, Germany), 2020).

Target: prostate-specific membrane antigen (PSMA) (Homo sapiens, UniProt Q04609)
Experiment: radioligand displacement of […]mTc-MIP-1427 in PSMA-expressing PC-3 PiP cells
Format: cell-based

Sequence of prostate-specific membrane antigen (PSMA) (Q04609 whole entry): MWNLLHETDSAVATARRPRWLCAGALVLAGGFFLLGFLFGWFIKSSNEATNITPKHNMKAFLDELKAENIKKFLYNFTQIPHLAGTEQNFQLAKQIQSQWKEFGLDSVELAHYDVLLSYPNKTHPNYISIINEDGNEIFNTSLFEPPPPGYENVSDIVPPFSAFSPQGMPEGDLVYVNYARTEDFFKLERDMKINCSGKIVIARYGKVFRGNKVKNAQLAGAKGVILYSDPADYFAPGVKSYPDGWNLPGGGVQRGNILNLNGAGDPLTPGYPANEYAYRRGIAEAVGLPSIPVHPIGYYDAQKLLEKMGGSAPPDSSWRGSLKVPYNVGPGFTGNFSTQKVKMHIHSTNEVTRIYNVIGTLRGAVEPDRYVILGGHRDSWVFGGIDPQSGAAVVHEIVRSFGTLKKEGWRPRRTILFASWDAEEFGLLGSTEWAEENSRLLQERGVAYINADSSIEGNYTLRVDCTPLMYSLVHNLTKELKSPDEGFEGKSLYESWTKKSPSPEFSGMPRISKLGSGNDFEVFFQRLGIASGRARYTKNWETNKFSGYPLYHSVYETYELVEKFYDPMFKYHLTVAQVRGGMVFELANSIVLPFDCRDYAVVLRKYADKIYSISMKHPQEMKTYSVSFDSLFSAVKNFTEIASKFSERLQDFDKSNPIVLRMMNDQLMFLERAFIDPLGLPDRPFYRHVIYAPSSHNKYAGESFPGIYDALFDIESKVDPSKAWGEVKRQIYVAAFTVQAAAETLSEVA

Substance	Ki
La(DO2Apic)-DUPA	12 ± 3 nM
La(macropa)-DUPA	17 ± 2 nM
